Legend:
[1] = Solubility in cyclopentanone; type: physicochemical; conditions: for Solubility: heated and stirred at 50° C. for 1 minute, left at 20° C. for 10 minutes, concentration lowered from 40% in 5% steps
Procedure: Cyclopentanone was added to 25 mg of each synthesized compound so that the concentration of each compound was 40% by mass, and the mixture was heated and stirred at 50° C. for 1 minute.
Then, the mixture was left to stand at 20° C. for 10 minutes, and in a case where there is no undissolved residue or precipitation, it is determined that the mixture can be dissolved at 40% by mass.
In a case where there was an undissolved residue or precipitation, cyclopentanone was further added to the mixture to reduce the concentration by 5% by mass, an operation of heating and stirring at 50° C. for 1 minute and then leaving the mixture stand at 20° C. for 10 minutes was repeatedly performed until there was no undissolved residue or precipitation, thereby confirming the solubility.

[2] = Precipitation suppression (recrystallization temperature on cooling, hot stage under polarizing microscope); type: physicochemical; conditions: for Precipitation suppression: class by recrystallization temperature, heated to isotropic phase, then lowered at 5° C./min
Procedure: Two polarizers of an optical microscope (ECLIPSE E600 POL, manufactured by Nikon Corporation) were arranged so that they were orthogonal to each other, and a sample stand was set between the two polarizers.
Then, a small amount of each synthesized compound was placed on a slide glass, and the slide glass was set on a hot stage placed on a sample stand. While observing the state of the sample with a microscope, the temperature of the hot stage was raised at 5° C./min, and the type of liquid crystal phase and the temperature at which phase transition occurred were recorded from the state of the sample.
In addition, for the recrystallization temperature, the temperature was elevated up to an isotropic phase and then lowered at 5° C./min, and a temperature at which crystals were precipitated was recorded.
Based on the results of the recrystallization temperature measured by the above-mentioned method for evaluating the phase transition temperature, the evaluation was made according to the following standard. The results are shown in Table 3 below. • A: Lower than 50° C. • B: 50° C. or higher and 100° C. or lower • C: Higher than 100° C. and 150° C. or lower • D: Higher than 150° C. and 180° C. or lower

| solubility (in words) ([1]; summary of Table 3) | precipitation suppression (in words) ([2]; summary of Table 3) | SMILES | Solubility [1] | Precipitation suppression [2] |
| --- | --- | --- | --- | --- |
| – | – | C=CC(=O)OCCOC(=O)C1CCC(C2CCC(C(=O)Oc3ccc(OC(=O)C4CCC(C5CCC(C(=O)OCCOC(=O)C=C)CC5)CC4)c4c(OC(C)=O)cccc34)CC2)CC1 (centres unmarked) [Compound 1-13] | 30 % by mass | A (Lower than 50° C.) |
| – | – | C=CC(=O)OCCCCOC(=O)C1CCC(C2CCC(C(=O)Oc3ccc(OC(=O)C4CCC(C5CCC(C(=O)OCCCCOC(=O)C=C)CC5)CC4)c4c(OCC)ccc(OCC)c34)CC2)CC1 (centres unmarked) [Compound 1-16] | >40 % by mass | A (Lower than 50° C.) |
| – | – | C=CC(=O)OCCCCOC(=O)C1CCC(C2CCC(C(=O)Oc3ccc(OC(=O)C4CCC(C5CCC(C(=O)OCCCCOC(=O)C=C)CC5)CC4)c4c(OC(=O)CCl)cccc34)CC2)CC1 (centres unmarked) [Compound 2-4] | 20 % by mass | A (Lower than 50° C.) |
| – | – | C=CC(=O)OCCCCOC(=O)C1CCC(C2CCC(C(=O)Oc3ccc(OC(=O)C4CCC(C5CCC(C(=O)OCCCCOC(=O)C=C)CC5)CC4)c4cc(C)ccc34)CC2)CC1 (centres unmarked) [Compound 1-6] | 35 % by mass | C (Higher than 100 °C and 150 °C or lower) |
| – | – | C=CC(=O)OCCCCOC(=O)C1CCC(C2CCC(C(=O)Oc3ccc(OC(=O)C4CCC(C5CCC(C(=O)OCCCCOC(=O)C=C)CC5)CC4)c4c(OCCCC)cccc34)CC2)CC1 (centres unmarked) [Compound 1-9] | 20 % by mass | A (Lower than 50° C.) |
| – | – | C=CC(=O)OCCOCCOCCOC(=O)C1CCC(C2CCC(C(=O)Oc3ccc(OC(=O)C4CCC(C5CCC(C(=O)OCCOCCOCCOC(=O)C=C)CC5)CC4)c4c(OC(C)=O)cccc34)CC2)CC1 (centres unmarked) [Compound 1-15] | >40 % by mass | A (Lower than 50° C.) |
| – | – | C=CC(=O)OCCCCOc1ccc(C(=O)Oc2ccc(C(=O)Oc3ccc(OC(=O)c4ccc(OC(=O)c5ccc(OCCCCOC(=O)C=C)cc5)cc4)c4c(OC(C)=O)cccc34)cc2)cc1 [Compound 2-2] | 15 % by mass | C (Higher than 100 °C and 150 °C or lower) |
| deteriorated | deteriorated | C=CC(=O)OCCCCOc1ccc(C(=O)Oc2ccc(OC(=O)c3ccc(OC(=O)c4ccc(OC(=O)c5ccc(OCCCCOC(=O)C=C)cc5)cc4)c(C)c3)cc2)cc1 [compound 2, reference compound] | <5 % by mass | C (Higher than 100 °C and 150 °C or lower) |
| – | – | C=CC(=O)OCCCCOC(=O)C1CCC(C2CCC(C(=O)Oc3ccc(OC(=O)C4CCC(C5CCC(C(=O)OCCCCOC(=O)C=C)CC5)CC4)c4c(OC(C)=O)cccc34)CC2)CC1 (centres unmarked) [Compound 1-11] | 35 % by mass | A (Lower than 50° C.) |
| – | – | C=C(C)C(=O)OCCCCOC(=O)C1CCC(C2CCC(C(=O)Oc3ccc(OC(=O)C4CCC(C5CCC(C(=O)OCCCCOC(=O)C(=C)C)CC5)CC4)c4c(OC(C)=O)cccc34)CC2)CC1 (centres unmarked) [Compound 1-12] | 35 % by mass | A (Lower than 50° C.) |
| – | – | C=CC(=O)OCCCCOC(=O)C1CCC(C2CCC(C(=O)Oc3ccc(OC(=O)C4CCC(C5CCC(C(=O)OCCCCOC(=O)C=C)CC5)CC4)c4c(OCC)cccc34)CC2)CC1 (centres unmarked) [Compound 1-8] | 20 % by mass | B (50 °C or higher and 100 °C or lower) |
| – | – | C=CC(=O)OCCCCOC(=O)C1CCC(C2CCC(C(=O)Oc3cc(OCC)c(OC(=O)C4CCC(C5CCC(C(=O)OCCCCOC(=O)C=C)CC5)CC4)c4ccccc34)CC2)CC1 (centres unmarked) [Compound 1-4] | >40 % by mass | B (50 °C or higher and 100 °C or lower) |
| – | – | C=CC(=O)OCCCCOC(=O)C1CCC(C2CCC(C(=O)Oc3ccc(OC(=O)C4CCC(C5CCC(C(=O)OCCCCOC(=O)C=C)CC5)CC4)c4c(C)cccc34)CC2)CC1 (centres unmarked) [Compound 1-7] | 25 % by mass | C (Higher than 100 °C and 150 °C or lower) |
| – | – | C=CC(=O)OCCCCOC(=O)C1CCC(C2CCC(C(=O)Oc3ccc(OC(=O)C4CCC(C5CCC(C(=O)OCCCCOC(=O)C=C)CC5)CC4)c4ccccc34)CC2)CC1 (centres unmarked) [Compound 1-1] | 20 % by mass | D (Higher than 150 °C and 180 °C or lower) |
| – | – | C=CC(=O)OCCCCOC(=O)C1CCC(C2CCC(C(=O)Oc3cc(C)c(OC(=O)C4CCC(C5CCC(C(=O)OCCCCOC(=O)C=C)CC5)CC4)c4ccccc34)CC2)CC1 (centres unmarked) [Compound 1-2] | 25 % by mass | C (Higher than 100 °C and 150 °C or lower) |
| – | – | C=CC(=O)OCCCCOC(=O)C1CCC(C2CCC(C(=O)Oc3cc(OC)c(OC(=O)C4CCC(C5CCC(C(=O)OCCCCOC(=O)C=C)CC5)CC4)c4ccccc34)CC2)CC1 (centres unmarked) [Compound 1-3] | 20 % by mass | C (Higher than 100 °C and 150 °C or lower) |
| – | – | C=CC(=O)OCCCCOC(=O)C1CCC(C2CCC(C(=O)Oc3ccc(OC(=O)C4CCC(C5CCC(C(=O)OCCCCOC(=O)C=C)CC5)CC4)c4c(OCCCCCCCC)cccc34)CC2)CC1 (centres unmarked) [Compound 1-10] | 30 % by mass | B (50 °C or higher and 100 °C or lower) |
| – | – | C=CC(=O)OCCCCOC(=O)C1CCC(C2CCC(C(=O)Oc3ccc(OC(=O)C4CCC(C5CCC(C(=O)OCCCCOC(=O)C=C)CC5)CC4)c4c(OS(C)(=O)=O)cccc34)CC2)CC1 (centres unmarked) [Compound 2-3] | 25 % by mass | A (Lower than 50° C.) |
| – | – | C=CC(=O)OCCCCOC(=O)C1CCC(C2CCC(C(=O)Oc3ccc(OC(=O)C4CCC(C5CCC(C(=O)OCCCCOC(=O)C=C)CC5)CC4)c4c(OC(C)=O)ccc(OC(C)=O)c34)CC2)CC1 (centres unmarked) [Compound 1-17] | 20 % by mass | C (Higher than 100 °C and 150 °C or lower) |
| – | – | C=CC(=O)OCCCCOC(=O)C1CCC(OC(=O)C2CCC(C(=O)Oc3ccc(OC(=O)C4CCC(C(=O)OC5CCC(C(=O)OCCCCOC(=O)C=C)CC5)CC4)c4ccccc34)CC2)CC1 (centres unmarked) [Compound 2-1] | 10 % by mass | C (Higher than 100 °C and 150 °C or lower) |
| – | – | C=CC(=O)OCCCCOC(=O)C1CCC(C2CCC(C(=O)Oc3cc(C(=O)OC)c(OC(=O)C4CCC(C5CCC(C(=O)OCCCCOC(=O)C=C)CC5)CC4)c4ccccc34)CC2)CC1 (centres unmarked) [Compound 1-5] | >40 % by mass | B (50 °C or higher and 100 °C or lower) |

Source: patent US20260243940A1, “COMPOUND, POLYMERIZABLE COMPOSITION, CURED PRODUCT, OPTICAL FILM, POLARIZING PLATE, AND IMAGE DISPLAY DEVICE” (FUJIFILM Corporation, priority 2019, published 2026)
